Measured values taken from patent US8329141B2, “Locoregional internal radionuclide ablation of abnormal tissues” (Board of Regents, The University of Texas System, priority 2004, dated 2012).
“Also recorded” adds a separate entry of the source.

Columns and labels:
[1] = up to a 20 mg/kg systemic dose (Kalia; Mohanti et al.); cited from earlier work
rat breast cancer = conditions: systemic injection (Mortimer and Taylor; Moadel et al.); cited from earlier work
[2] = test system: rat mammary cancer 13762F tumor cells; assay: In vivo tumor growth after intratumoral injection of radiopharmaceuticals (rat mammary cancer model); parameters: species or system Fischer 344 female rats; conditions: for tumor growth / tumor development: 0.6 mCi intratumoral on day 10 in 0.1-0.2 ml saline (pH 4.5-6), FIG. 2
Method: The radionuclides YCl3, ^111In—Cl, and ^201Tl—Cl were obtained from a local supplier of radioisotopes, Iso-Tex Diagnostics (Friendswood, Tex.). YCl3 obtained from the supplier was in an acidic preparation with a pH of 2-3, and was subsequently diluted in saline to a final pH of about 4-6 before injection. Initial activities of ^111In—Cl and YCl3 were about 200-500 mCi/ml, and dilution were made with preservative-free saline. YIMA was prepared by co-precipitation, as set forth in U.S. Ser. No. 10/724,027. Briefly, 500 μl of FeCl3 (1 mg Fe/ml) was added to 30 μl of ^90Y chloride (20-40 μCi/30 μl), and either 30 μl of NaOH (1.0 N) or 10 μl of NH4OH (20.0%) was added to the solution to reach a pH of about 7.0 to 9.0. Co-precipitated YIMA radiopharmaceutical macroaggregates were then separated from remaining soluble radionuclides by centrifuging the reactions from 1500 RPM to 3000 RPM×5 minutes, and filtered using a Millipore Nylone (size: 0.45 μm, diameter: 13 mm) to isolate the radiopharmaceutical macroaggregates.
The rat model of in vivo tumor growth was generated as follows. On day zero, 100,000 rat mammary cancer 13762F tumor cells were implanted in a volume of 0.15 ml into the right thigh muscle of Fischer 344 female rats weighing approximately 160 grams. […] YIMA was injected in a volume of 0.2 ml on days 3-7 after tumor implantation. Tumor sizes and body weights of the rats were monitored regularly (5 times a week) for several weeks, or until the tumors grew beyond 2.5 cm, at which time the rats were euthanized.

[3] = In vivo local sequestration at the injection site by serial scintigrams (intramuscular or intratumoral injection); parameters: species or system Fischer rats; conditions: for retention time with free iron / effect of free iron in the injectate on retention / local sequestration: admixture with FeCl3.6H2O; for retention time with free iron: intramuscular or intratumoral injection; for effect of free iron in the injectate on retention / local sequestration: 1 mg Fe in total injectate; for clearance after intramuscular injection: thigh muscle, after only 3 hours, negative control
Method: To further study the localization of unsealed radiopharmaceuticals after injection, in vivo imaging studies were carried out comparing ^111In DTPA (In-DTPA) (negative control) and Indium-111-Iron Macroaggregate (^111In-IMA) (positive control) to ^111In—Cl. ^111In emits gamma rays that can be detected using a gamma camera. ^111In-IMA was generated according to methods disclosed in U.S. Ser. No. 10/724,027, incorporated herein by reference. Each radiopharmaceutical was administered by intramuscular injection into the thigh muscle of Fischer rats which weighed approximately 200 grams. Two different doses of ^111In—Cl were administered to the rats, 0.4 and 0.8 mCi in 0.2 ml saline. Distribution of the ^111In—Cl was determined through serial scintigrams. […] In comparison, when ^111In-IMA was administered to rats, consistent retention (84%) of the ^111In-IMA was found 70 hours after administration (FIG. 8). Persistent intramuscular localization of ^111In—Cl was also found in rats for both dose levels of ^111In—Cl, with over 50% of the injected ^111In—Cl remaining in the injection site after three days.
To investigate whether the addition of free iron to radionuclides would increase the locoregional retention of various radionuclides, admixtures of ^67Ga-citrate, YCl3, or ^111In—Cl, were prepared with FeCl3.6H2O at 1-5 mg Fe/ml. Each radionuclide combination/admixture was administered either by intramuscular (IM) injection into the thigh muscle of the left leg (0.1-1.0 mCi) or by intratumoral (IT) injection into a tumor in the right leg (0.4-5.0 mCi) of Fischer rats. Distribution of the radionuclide was determined through serial scintigrams. Whole body images were acquired with a Siemens M-CAM camera using respective photo peaks of Ga-67, Tl-201 (for Y-90), or In-111, and 15-20% windows in photo energy. The typical imaging time was 0.5 to 5 minutes. A respective standard was present in the field of view (0.1-0.5 mCi), and used for image quantification by comparing images with the standard and normalizing the initial injection time as 100%. The Fe content in each combination/admixture was 1 mg in the total injectate.

[4] = cited from earlier work
[5] = intravenous; four days after injection (Kutzner et al.); cited from earlier work
serum proteins = assay: Binding to serum proteins (Centrifree filter separation); format: in vitro ADME, human (patients); conditions: 0.2, 0.5 or 1 μCi added to diluted serum protein, 20 minutes; physiologic range, all concentrations tested
Method: To test the hypothesis that local sequestration of ^111In—Cl is due to protein binding, both ^111In—Cl and YCl3 were tested for binding to CSF and serum proteins. Serum proteins were obtained from residual baseline serum and CSF proteins were obtained from patients participating in other research protocols who had consented to blood sampling. To determine the level of ^111In—Cl protein binding, 0.2, 0.5, or 1 μCi of ^111In—Cl was added to diluted CSF (0.125 or 0.5) or diluted serum protein (0.125 and 0.25) and incubated for 20 minutes. To determine the level of YCl3 protein binding, 0.2, 0.5, or 1 μCi of YCl3 was added to diluted CSF (0.063 or 0.5) or diluted serum protein (0.063 and 0.375), and incubated for 20 minutes. After incubation, free radiopharmaceuticals were separated from protein bound ^111In—Cl or YCl3 using Amicon Centrifree Micropartition filters in a single centrifugation step at 3000 g for 15 minutes according to manufacturer's instructions (Amicon, Beverly, Mass.). The percent binding of YCl3 or ^111In—Cl to the CSF or serum protein was then calculated. As shown in FIG. 6 and FIG. 7 respectively, both YCl3 and ^111In—Cl bind avidly to CSF and serum protein within the physiologic range (a dilution factor between 0.2 and 0.6) at all concentrations tested. At room temperature, both YCl3 and ^111In—Cl have greater than 95% binding to serum proteins. […]

CSF proteins = assay: Binding to CSF proteins (Centrifree filter separation); format: in vitro ADME, human (patients); conditions: 0.2, 0.5 or 1 μCi added to diluted CSF, 20 minutes; physiologic range, all concentrations tested
Method: To test the hypothesis that local sequestration of ^111In—Cl is due to protein binding, both ^111In—Cl and YCl3 were tested for binding to CSF and serum proteins. Serum proteins were obtained from residual baseline serum and CSF proteins were obtained from patients participating in other research protocols who had consented to blood sampling. To determine the level of ^111In—Cl protein binding, 0.2, 0.5, or 1 μCi of ^111In—Cl was added to diluted CSF (0.125 or 0.5) or diluted serum protein (0.125 and 0.25) and incubated for 20 minutes. To determine the level of YCl3 protein binding, 0.2, 0.5, or 1 μCi of YCl3 was added to diluted CSF (0.063 or 0.5) or diluted serum protein (0.063 and 0.375), and incubated for 20 minutes. After incubation, free radiopharmaceuticals were separated from protein bound ^111In—Cl or YCl3 using Amicon Centrifree Micropartition filters in a single centrifugation step at 3000 g for 15 minutes according to manufacturer's instructions (Amicon, Beverly, Mass.). The percent binding of YCl3 or ^111In—Cl to the CSF or serum protein was then calculated. As shown in FIG. 6 and FIG. 7 respectively, both YCl3 and ^111In—Cl bind avidly to CSF and serum protein within the physiologic range (a dilution factor between 0.2 and 0.6) at all concentrations tested. At room temperature, both YCl3 and ^111In—Cl have greater than 95% binding to serum proteins.

[6] = Biodistribution and projected human radiation dosimetry after intravenous or intramuscular injection; format: in vivo, female Fisher rats; conditions: for human dosimetry estimate, kidney / human dosimetry estimate, red marrow: from rat biodistribution
Method: To evaluate the radiation toxicity of YCl3 after intravenous or intramuscular injection, parallel experiments were performed to evaluate the biodistribution and projected human radiation dosimetry of both ^111In—Cl and YCl3. The experiments used three female Fisher rats (140-160 grams) for each set of injections. Each rat was injected intravenously, or was injected intramuscularly in the right thigh, with 0.05 mCi of YCl3 or ^111In—Cl (with no carrier added) in 0.1 ml saline (pH 5-6). The effect of initial exposure of the radiopharmaceuticals to interstitial fluid was estimated by serum protein binding experiments using Millipore Centrifree filters as set forth in Example 2. Organs including the right and left femur, as well as the right and left thigh muscles, were harvested from each rat 7 days after injection. Human dosimetry for each radiopharmaceutical was constructed using established anthropomorphic models.

human cancer cell lines = conditions: a number of human cancer cell lines; cited from earlier work
[7] = FIG. 4, in 0.5 ml saline, YCl3 0.5, 1.0, 2.0 mCi, ^111In—Cl 1.0, 4.0 mCi, FDG 1.0, 2.0, 3.0 mCi, ^67Ga—Fe 1.77 mCi

O=CC[C@@H](O)[C@H](O)[C@H](O)CO [2DG, 2-deoxy-D-glucose]
enhancement of the effects of a radiopharmaceutical [1]: effective in enhancing the effects of a radiopharmaceutical

OC[C@H]1OC(O)[C@H]([18F])[C@@H](O)[C@@H]1O (stereo partly drawn) [FDG, F-18-2-deoxy-2-fluoro-D-glucose, reference compound]
induction of apoptosis (rat breast cancer): sufficient to induce apoptosis | tumor growth [2, 7]: YCl3 appeared to be the only radiopharmaceutical that significantly suppressed tumor growth

O=C([O-])CC(O)(CC(=O)[O-])C(=O)[O-].[67Ga+3] [^67Ga citrate, Gallium 67 citrate, reference compound]
retention time with free iron [3]: Increase in the retention time | retention in the injection site ([3]; intramuscular injection, without free iron): comparatively short time

[Cl][Ga]([Cl])[Cl] [^67Ga—Cl, Gallium 67 chloride]
retention time with free iron [3]: Increase in the retention time

[90Y] [^90Y, Yttrium-90]
radiation toxicity in red bone marrow ([4]; by ICRP-30): 15-18 cGy/mCi | red marrow dose ([4]; derived from distribution of Yttrium-86 citrate in human PET studies (Herzog et al.)): 4-6 cGy/mCi | injected amount present in the bones [5]: 50%-80%

[Cl][111In]([Cl])[Cl] [^111In—Cl, Indium-111 chloride]
binding to serum protein (serum proteins): bind avidly | retention time with free iron [3]: Increase in the retention time | effect of free iron in the injectate on retention / local sequestration ([3]; intramuscular injection): does not appear to dramatically affect | injected radiopharmaceutical remaining in the injection site ([3]; intramuscular, 0.4 and 0.8 mCi in 0.2 ml saline (both dose levels), after three days): over 50% | effect of pH of the injectate on local sequestration ([3]; intramuscular, acidic solution (pH 3.0) vs basic solution (pH 8.0), FIG. 9): does not appear to dramatically affect | effect of free iron in the injectate on retention / local sequestration ([3]; intratumoral injection): does appear to increase | tumor growth / tumor development [2]: not suppressed; also recorded: not reduced; also recorded: did not suppress tumor development | tumor growth ([2]; FIG. 3, in 0.2-0.3 ml saline, YCl3 0.3, 0.6, 1.5 mCi, ^111In—Cl 0.6, 1.2, 2.4, 4.8 mCi, ^67Ga 0.6 mCi): YCl3 appeared to be the only radiopharmaceutical that significantly suppressed tumor growth | tumor growth [2, 7]: YCl3 appeared to be the only radiopharmaceutical that significantly suppressed tumor growth | tumor growth ([2]; FIG. 5, in 1.0 ml saline, ^111In—Cl 2.2 mCi, ^188Re EDTA 1.5 mCi with or without free iron): strong tumor suppression | change in tumor suppression with injection volume ([2]; injection volume increased from 0.2-0.3 ml and 0.5 ml to 1.0 ml, therapeutic dosage not increased): dramatic increase in tumor suppression | binding to CSF (CSF proteins): bind avidly | skeletal distribution ([6]; estimated from the left femur (opposite to the injection site)): about 16% | radiation uptake in the right thigh muscle ([6]; intramuscular injection in right thigh): high | radiation uptake in right femur versus contralateral organ ([6]; intramuscular injection in right thigh, decreasing over time to): 3 times higher | radiation uptake in right femur versus contralateral organ ([6]; intramuscular injection in right thigh, initial): 6 times higher | human dosimetry estimate, kidney ([6]; intramuscular): 1.13 cGy/mCi | human dosimetry estimate, red marrow ([6]; intramuscular): 0.55 cGy/mCi | organs with the highest uptake ([6]; intravenous injection, 0.05 mCi in 0.1 ml saline): spleen, liver, and kidney | human dosimetry estimate, kidney ([6]; intravenous): 10.4 cGy/mCi | human dosimetry estimate, red marrow ([6]; intravenous): 4.01 cGy/mCi

[O]=[188Re](=[O])(=[O])[O-] [^188Re perrhenate, reference compound]
clearance from the injection site ([3]; intratumoral injection, without free iron, FIG. 16): rapidly cleared | effect of free iron in the injectate on retention / local sequestration ([3]; intratumoral injection): did not slow down the clearance

[Cl][201Tl] [^201Tl—Cl, Thallium-201 chloride, reference compound]
effect of free iron in the injectate on retention / local sequestration ([3]; intratumoral injection): did not dramatically slow down clearance | tumor growth / tumor development [2]: not reduced

Rhodamine-123 [Rh-123]
toxicity to cancer cell lines (human cancer cell lines): selectively toxic

^111In DTPA [^111In-DTPA, reference compound]
clearance after intramuscular injection ([3]; intramuscular): rapidly cleared | clearance after intramuscular injection ([3]; intramuscular, listed as In-DTPA): rapid clearance
